Results as given in patent US10143730B2, “Peptides and combination of peptides for use in immunotherapy against various cancers” (immatics biotechnologies GmbH, priority 2015, dated 2018).

What was measured:
[1] = tested on: CD8+ T cells of healthy HLA-A*02+ donors; assay: In vitro T-cell priming with aAPCs loaded with HLA-A*02/peptide complexes and anti-CD28, multimer staining; format: cell-based, human; details: for Wells positive [%] (in vitro immunogenicity): HLA-A*02 peptides (SEQ ID 1-157, 229-266), peptide-specific multimer+ CD8+ T cells after aAPC priming; for Wells (in vitro immunogenicity): HLA-A*02-binding peptides (Table 7A), Table 19A
Source text: FIGS. 4A to 4D show exemplary results of peptide-specific in vitro CD8+ T cell responses of a healthy HLA-A*02+ donor. CD8+ T cells were primed using artificial APCs coated with anti-CD28 mAb and HLA-A*02 in complex with Seq ID No 27 peptide (FIG. 4A, left panel), Seq ID No 229 peptide (FIG. 4B, left panel), Seq ID No 230 peptide (FIG. 4C, left panel) and Seq ID No 235 peptide (FIG. 4D, left panel), respectively. After three cycles of stimulation, the detection of peptide-reactive cells was performed by 2D multimer staining with A*02/Seq ID No 27 (FIG. 4A), A*02/Seq ID No 229 (FIG. 4B), A*02/Seq ID No 230 (FIG. 4C) or A*02/Seq ID No 235 (FIG. 4D). Right panels (FIGS. 4A, 4B, 4C and 4D) show control staining of cells stimulated with irrelevant A*02/peptide complexes. Viable singlet cells were gated for CD8+ lymphocytes. Boolean gates helped excluding false-positive events detected with multimers specific for different peptides. Frequencies of specific multimer+ cells among CD8+ lymphocytes are indicated.
In order to obtain information regarding the immunogenicity of the TUMAPs of the present invention, the inventors performed investigations using an in vitro T-cell priming assay based on repeated stimulations of CD8+ T cells with artificial antigen presenting cells (aAPCs) loaded with peptide/MHC complexes and anti-CD28 antibody.
In order to perform in vitro stimulations by artificial antigen presenting cells loaded with peptide-MHC complex (pMHC) and anti-CD28 antibody, the inventors first isolated CD8+ T cells from fresh HLA-A*02 leukapheresis products via positive selection using CD8 microbeads (Miltenyi Biotec, Bergisch-Gladbach, Germany) of healthy donors obtained from the University clinics Mannheim, Germany, after informed consent.
PBMCs and isolated CD8+ lymphocytes were incubated in T-cell medium (TCM) until use consisting of RPMI-Glutamax (Invitrogen, Karlsruhe, Germany) supplemented with 10% heat inactivated human AB serum (PAN-Biotech, Aidenbach, Germany), 100 U/ml Penicillin/100 μg/ml Streptomycin (Cambrex, Cologne, Germany), 1 mM sodium pyruvate (CC Pro, Oberdorla, Germany), 20 μg/ml Gentamycin (Cambrex). 2.5 ng/ml IL7 (PromoCell, Heidelberg, Germany) and 10 U/ml IL-2 (Novartis Pharma, Nürnberg, Germany) were also added to the TCM at this step.
Generation of pMHC/anti-CD28 coated beads, T-cell stimulations and readout was performed in a highly defined in vitro system using four different pMHC molecules per stimulation condition and 8 different pMHC molecules per readout condition.
The purified co-stimulatory mouse IgG2a anti human CD28 Ab 9.3 (Jung et al., 1987) was chemically biotinylated using Sulfo-N-hydroxysuccinimidobiotin as recommended by the manufacturer (Perbio, Bonn, Germany). Beads used were 5.6 μm diameter streptavidin coated polystyrene particles (Bangs Laboratories, Illinois, USA).
pMHC used for positive and negative control stimulations were A*0201/MLA-001 (peptide […] (SEQ ID NO. 303) from modified Melan-A/MART-1) and A*0201/DDX5-001 ([…] from DDX5, SEQ ID NO. 304), respectively.
800.000 beads/200 μl were coated in 96-well plates in the presence of 4×12.5 ng different biotin-pMHC, washed and 600 ng biotin anti-CD28 were added subsequently in a volume of 200 μl. Stimulations were initiated in 96-well plates by co-incubating […] CD8+ T cells with 2×10^5 washed coated beads in 200 μl TCM supplemented with 5 ng/ml IL-12 (PromoCell) for 3 days at 37° C. Half of the medium was then exchanged by fresh TCM supplemented with 80 U/ml IL-2 and incubating was continued for 4 days at 37° C. This stimulation cycle was performed for a total of three times. For the pMHC multimer readout using 8 different pMHC molecules per condition, a two-dimensional combinatorial coding approach was used as previously described (Andersen et al., 2012) with minor modifications encompassing coupling to 5 different fluorochromes. […]

HLA-A*02 = molecular target: T1, HLA-A*02 (Homo sapiens, UniProt P04439, D140Y/D185E/D98H/E176V/E277Q/G131W/G231S/I119V/I121R/I166T/I218V/L300P/N151K/N90K/P208A/P217A/Q86G/Q94H/R138H/R169H); assay: MHC binding assay, UV-ligand exchange with beta2m ELISA (peptide exchange yield); details: binding to HLA-A*02
T1 construct: made in house
Summary of the method: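 pMHC complexes formed by UV-induced cleavage of a photolabile peptide and exchange with candidate peptide; exchange yield measured by streptavidin-capture ELISA detecting β2m with HRP anti-β2m, TMB, A450. Exchange samples diluted 100-fold; refolded HLA-A*02:01/MLA-001 monomers (15-500 ng/ml) as standards; incubations 1 h, 37 °C.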

Substance	Wells positive [%] (in vitro immunogenicity) [1]	Peptide exchange (MHC class I binding score, peptide exchange yield) (HLA-A*02)	Wells (in vitro immunogenicity) [1]
1 (LLYPEPWSV; listed as Homo sapiens) [compound 1]	++ (20%-49% = ++)	++++ (> = 75% = ++++)	–
4 (KLMPGTYTL; listed as Homo sapiens) [compound 4]	+ (<20% = +)	++++ (> = 75% = ++++)	–
5 (GIVAHIQEV; listed as Homo sapiens) [compound 5]	+ (<20% = +)	+++ (50%-75% = +++)	–
6 (ALFDSLRHV; listed as Homo sapiens) [compound 6]	++ (20%-49% = ++)	+++ (50%-75% = +++)	–
7 (ILDHEVPSL; listed as Homo sapiens) [compound 7]	++ (20%-49% = ++)	+++ (50%-75% = +++)	–
11 (ALSPSYLTV; listed as Homo sapiens) [compound 11]	++ (20%-49% = ++)	+++ (50%-75% = +++)	–
12 (GLLPLLHRA; listed as Homo sapiens) [compound 12]	++++ (> = 70% = ++++)	++++ (> = 75% = ++++)	–
14 (ILAKDLFEI; listed as Homo sapiens) [compound 14]	++ (20%-49% = ++)	++++ (> = 75% = ++++)	–
18 (ILLDLTDNRL; listed as Homo sapiens) [compound 18]	+ (<20% = +)	+++ (50%-75% = +++)	–
20 (GLSQITNQL; listed as Homo sapiens) [compound 20]	++ (20%-49% = ++)	+++ (50%-75% = +++)	–
23 (SLFSDEFKV; listed as Homo sapiens) [compound 23]	++++ (> = 70% = ++++)	+++ (50%-75% = +++)	–
26 (ALQEELTEL; listed as Homo sapiens) [compound 26]	+ (<20% = +)	+++ (50%-75% = +++)	–
27 (RLMEENWNA; listed as Homo sapiens) [compound 27]	+++ (50%-69% = +++)	+++ (50%-75% = +++)	–
29 (YLLDPSITL; listed as Homo sapiens) [compound 29]	+ (<20% = +)	+++ (50%-75% = +++)	–
31 (TITETTVEV; listed as Homo sapiens) [compound 31]	+ (<20% = +)	+++ (50%-75% = +++)	–
35 (FLLPFSTVYL; listed as Homo sapiens) [compound 35]	+ (<20% = +)	+++ (50%-75% = +++)	–
90 (FLQDLEQRL; listed as Homo sapiens) [compound 90]	+ (<20% = +)	+++ (50%-75% = +++)	–
92 (GLLFSLRSV; listed as Homo sapiens) [compound 92]	++ (20%-49% = ++)	++++ (> = 75% = ++++)	–

Substance	Wells positive [%] (in vitro immunogenicity) [1]	Peptide exchange (MHC class I binding score, peptide exchange yield) (HLA-A*02)	Wells (in vitro immunogenicity) [1]
96 (LLVSHLYLV; listed as Homo sapiens) [compound 96]	++ (20%-49% = ++)	++ (20%-49% = ++)	–
138 (ALLAKILQI; listed as Homo sapiens) [compound 138]	++ (20%-49% = ++)	+++ (50%-75% = +++)	–
141 (FLDKVLVAA; listed as Homo sapiens) [compound 141]	+ (<20% = +)	+++ (50%-75% = +++)	–
144 (ALLAFFPGL; listed as Homo sapiens) [compound 144]	+++ (50%-69% = +++)	+++ (50%-75% = +++)	–
149 (ILNTHITEL; listed as Homo sapiens) [compound 149]	+ (<20% = +)	+++ (50%-75% = +++)	–
150 (VLYDRPLKI; listed as Homo sapiens) [compound 150]	++ (20%-49% = ++)	+++ (50%-75% = +++)	–
151 (SVLDSTAKV; listed as Homo sapiens) [compound 151]	++ (20%-49% = ++)	++ (20%-49% = ++)	–
229 (AILAHLNTV; listed as Homo sapiens) [compound 229]	++ (20%-49% = ++)	++++ (> = 75% = ++++)	–
230 (KLQNIMMLL; listed as Homo sapiens) [compound 230]	++++ (> = 70% = ++++)	++ (20%-49% = ++)	–
232 (KIFPAALQLV; listed as Homo sapiens) [compound 232]	++ (20%-49% = ++)	+++ (50%-75% = +++)	–
233 (HLFDAFVSV; listed as Homo sapiens) [compound 233]	++ (20%-49% = ++)	+++ (50%-75% = +++)	–
235 (KIIDFLSAL; listed as Homo sapiens) [compound 235]	+++ (50%-69% = +++)	+++ (50%-75% = +++)	–
247 (ALYEGYATV; listed as Homo sapiens) [compound 247]	++ (20%-49% = ++)	+++ (50%-75% = +++)	–
248 (YLDRFLAGV; listed as Homo sapiens) [compound 248]	++ (20%-49% = ++)	++++ (> = 75% = ++++)	–
291 (KLDETGNSL; listed as Homo sapiens) [compound 291]	–	–	+ (<20% = +)
292 (GMMTAILGV; listed as Homo sapiens) [compound 292]	–	–	+ (<20% = +)
293 (FLVDGSWSI; listed as Homo sapiens) [compound 293]	–	–	+ (<20% = +)
